How the values were obtained:
Assay type in all cases: biochemical
mouse MMP-3 = target: T1, mouse MMP-3 (Mus musculus, UniProt P28862); assay: In vitro mouse MMP-3 inhibition test
T1 construct: purchased R&D Systems 548-MP
Text: (§1) The MMP-mediated amidolytic cleavage of a suitable peptide substrate leads to an increase in fluorescent light here too. The signal intensity of the fluorescent light is directly proportional to the enzyme activity. The active concentration of a test compound at which half the enzyme is inhibited (50% signal intensity of the fluorescent light) is reported as the IC50 value.
(§2) Recombinant mouse MMP-3 (from R&D Systems, 548-MP) is chemically activated in accordance with the manufacturer's instructions using APMA. 1 μl of the test compound to be analysed (as a solution in DMSO, suitable concentrations, for example, 1 nM to 30 μM) is pipetted into 24 μl of activated enzyme (final concentration, for example, 0.5 nM) in reaction buffer (50 mM Tris/HCl pH 7.5, 10 mM CaCl2, 150 mM NaCl, 0.05% Brij®-35) in a white 384-hole microtiter plate (MTP). The enzymatic reaction is started by adding the intramolecularly quenched Mca-Arg-Pro-Lys-Pro-Val-Glu-Nval-Trp-Arg-Lys(Dnp)-NH2 substrate (final concentration, for example, 5 μM; R&D Systems, ES-002), so as to result in a total test volume of 50 μl. The course of the MMP-3 reaction is measured by measuring the fluorescence intensity (excitation 320 nm, emission 410 nm) over a suitable period of time (for example over 120 min at a temperature of 32° C.).

mouse MMP-7 = target: T2, mouse MMP-7 (Mus musculus, UniProt Q10738); assay: In vitro mouse MMP-7 inhibition test
T2 construct: purchased R&D Systems 2967-MP
T2 sequence (Q10738 95-264): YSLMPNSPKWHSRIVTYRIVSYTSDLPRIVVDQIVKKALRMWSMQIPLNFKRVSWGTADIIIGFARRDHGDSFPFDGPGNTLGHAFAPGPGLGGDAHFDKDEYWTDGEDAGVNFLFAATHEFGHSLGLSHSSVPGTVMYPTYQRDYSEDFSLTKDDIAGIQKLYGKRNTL
Text: as §1
as §2, with “MMP-7” for “MMP-3”, “2967-MP)” for “548-MP)”, “Mca-Lys-Pro-Leu-Gly-Leu-Dpa(Dnp)-Ala-Arg-NH2” for “Mca-Arg-Pro-Lys-Pro-Val-Glu-Nval-Trp-Arg-Lys(Dnp)-NH2”, “ES-010),” for “ES-002),”

mouse MMP-8 = target: T3, mouse MMP-8 (Mus musculus, UniProt O70138); assay: In vitro mouse MMP-8 inhibition test
T3 construct: purchased R&D Systems 2904-MP
Text: as §1
as §2, with “MMP-8” for “MMP-3”, “2904-MP)” for “548-MP)”, “2” for “0.5”, “Mca-Lys-Pro-Leu-Gly-Leu-Dpa(Dnp)-Ala-Arg-NH2” for “Mca-Arg-Pro-Lys-Pro-Val-Glu-Nval-Trp-Arg-Lys(Dnp)-NH2”, “ES-010),” for “ES-002),”

mouse MMP-9 = target: T4, mouse MMP-9 (Mus musculus, UniProt P41245); assay: In vitro mouse MMP-9 inhibition test
T4 construct: purchased R&D Systems 909-MP
Text: as §1
as §2, with “MMP-9” for “MMP-3”, “909-MP)” for “548-MP)”, “0.1” for “0.5”, “Mca-Pro-Leu-Gly-Leu-Dpa(Dnp)-Ala-Arg-NH2” for “Mca-Arg-Pro-Lys-Pro-Val-Glu-Nval-Trp-Arg-Lys(Dnp)-NH2”, “ES-001),” for “ES-002),”, “50” for “50 μl.”

mouse MMP-12 = target: T5, mouse MMP-12 (Mus musculus, UniProt P34960); assay: In vitro mouse MMP-12 inhibition test (standard or high-sensitivity)
T5 construct: purchased R&D Systems 3467-MP
Text: as §1
Recombinant mouse MMP-12 (from R&D Systems, 3467-MP) is autocatalytically activated in accordance with the manufacturer's instructions. 1 μl of the test compound to be analysed (as a solution in DMSO, suitable concentrations, for example, 1 nM to 30 μM) is pipetted into 24 μl of activated enzyme (final concentration, for example, 1 nM) in reaction buffer (50 mM Tris/HCl pH 7.5, 10 mM CaCl2, 150 mM NaCl, 0.05% Brij®-35) in a white 384-hole microtiter plate (MTP). The enzymatic reaction is started by adding the intramolecularly quenched Mca-Lys-Pro-Leu-Gly-Leu-Dpa(Dnp)-Ala-Arg-NH2 substrate (final concentration, for example, 5 μM; R&D Systems, ES-010), so as to result in a total test volume of 50 The course of the MMP-12 reaction is measured by measuring the fluorescence intensity (excitation 320 nm, emission 410 nm) over a suitable period of time (for example over 120 min at a temperature of 32° C.).
In this case, an enzyme concentration ten times lower is used (final concentration, for example, 0.1 nM) in order to achieve an elevated test sensitivity. The incubation period chosen for the test is correspondingly longer (for example 16 hours).

T4 sequence (P41245 108-730): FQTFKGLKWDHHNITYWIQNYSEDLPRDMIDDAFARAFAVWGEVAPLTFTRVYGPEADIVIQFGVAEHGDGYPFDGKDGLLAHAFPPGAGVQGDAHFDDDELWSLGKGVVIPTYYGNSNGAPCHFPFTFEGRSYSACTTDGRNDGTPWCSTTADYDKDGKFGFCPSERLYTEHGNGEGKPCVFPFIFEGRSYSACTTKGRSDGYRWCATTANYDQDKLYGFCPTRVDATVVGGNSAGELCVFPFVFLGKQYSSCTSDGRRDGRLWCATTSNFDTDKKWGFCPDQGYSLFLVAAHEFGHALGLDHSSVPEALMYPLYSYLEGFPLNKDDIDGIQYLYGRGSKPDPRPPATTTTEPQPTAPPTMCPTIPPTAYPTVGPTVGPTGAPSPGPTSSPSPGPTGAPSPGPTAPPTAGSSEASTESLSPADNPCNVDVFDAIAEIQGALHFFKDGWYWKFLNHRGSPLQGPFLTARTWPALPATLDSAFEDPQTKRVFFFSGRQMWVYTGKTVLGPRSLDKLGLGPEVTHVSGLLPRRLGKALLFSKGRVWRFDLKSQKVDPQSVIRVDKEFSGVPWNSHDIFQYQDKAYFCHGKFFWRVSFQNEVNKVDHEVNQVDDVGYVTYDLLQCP
T1 sequence (P28862 100-477): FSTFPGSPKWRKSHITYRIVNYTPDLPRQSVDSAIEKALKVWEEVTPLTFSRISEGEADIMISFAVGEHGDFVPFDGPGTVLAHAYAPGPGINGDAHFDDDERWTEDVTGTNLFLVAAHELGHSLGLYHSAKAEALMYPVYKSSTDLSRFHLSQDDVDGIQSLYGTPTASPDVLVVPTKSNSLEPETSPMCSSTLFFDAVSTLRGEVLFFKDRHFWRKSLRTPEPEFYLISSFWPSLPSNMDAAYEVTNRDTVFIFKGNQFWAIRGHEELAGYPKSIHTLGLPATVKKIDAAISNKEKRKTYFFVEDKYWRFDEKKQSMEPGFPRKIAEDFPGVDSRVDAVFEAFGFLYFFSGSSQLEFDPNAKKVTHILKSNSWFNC
T5 sequence (P34960 110-473): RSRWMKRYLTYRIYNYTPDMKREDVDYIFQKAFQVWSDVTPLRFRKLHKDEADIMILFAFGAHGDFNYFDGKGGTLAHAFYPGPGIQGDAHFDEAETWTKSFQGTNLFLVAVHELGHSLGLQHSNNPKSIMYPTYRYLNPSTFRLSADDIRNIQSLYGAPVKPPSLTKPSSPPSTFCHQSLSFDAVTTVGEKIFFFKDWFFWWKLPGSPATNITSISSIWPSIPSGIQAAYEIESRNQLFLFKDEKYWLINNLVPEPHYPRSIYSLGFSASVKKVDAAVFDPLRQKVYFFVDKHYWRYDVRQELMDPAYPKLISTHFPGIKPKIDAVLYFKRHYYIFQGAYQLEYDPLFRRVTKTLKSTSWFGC
T3 sequence (O70138 101-465): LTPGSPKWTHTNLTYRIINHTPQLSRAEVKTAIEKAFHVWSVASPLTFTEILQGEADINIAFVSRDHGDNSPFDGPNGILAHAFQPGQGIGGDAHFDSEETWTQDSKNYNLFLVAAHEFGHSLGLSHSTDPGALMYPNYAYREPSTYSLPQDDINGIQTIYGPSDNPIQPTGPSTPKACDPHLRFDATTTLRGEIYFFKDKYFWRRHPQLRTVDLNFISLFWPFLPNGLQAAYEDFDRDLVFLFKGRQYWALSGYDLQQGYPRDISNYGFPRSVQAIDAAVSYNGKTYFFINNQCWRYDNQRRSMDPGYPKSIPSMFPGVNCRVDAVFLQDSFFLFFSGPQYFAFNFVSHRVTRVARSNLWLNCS

Compound | IC50 (mouse MMP-3) | IC50 (mouse MMP-7) | IC50 (mouse MMP-8) | IC50 (mouse MMP-9) | IC50 (mouse MMP-12)
Cc1cccc(COc2ccc(C(=O)[C@H]3CC[C@@H](Cn4nnc5ccc(C)cc5c4=O)[C@@H]3C(=O)O)cc2)c1 (racemic) [Example 97, (+/−)-(1RS,2RS,5SR)-2-{4-[(3-Methylbenzyl)oxy]benzoyl}-5-[(6-methyl-4-oxo-1,2,3-benzotriazin-3(4H)-yl)methyl]cyclopentanecarboxylic acid] | 4600 nM | 160 nM | 1300 nM | 1600 nM | 6.1 nM
Cc1ccc2nnn(C[C@@H]3CC[C@H](C(=O)c4ccc(OCc5cccc(C(F)(F)F)c5)cc4)[C@H]3C(=O)O)c(=O)c2c1 (racemic) [Example 100, (+/−)-(1RS,2SR,5RS)-2-[(6-Methyl-4-oxo-1,2,3-benzotriazin-3(4H)-yl)methyl]-5-(4-{[3-(trifluoromethyl)benzyl]oxy}benzoyl)cyclopentanecarboxylic acid] | 1800 nM | 150 nM | 250 nM | 1100 nM | 1.7 nM
Cc1ccc2nnn(C[C@@H]3CC[C@H](C(=O)c4ccc(OCc5cccc(OC(F)(F)F)c5)cc4)[C@H]3C(=O)O)c(=O)c2c1 (racemic) [Example 109, (+/−)-(1RS,2SR,5RS)-2-[(6-Methyl-4-oxo-1,2,3-benzotriazin-3(4H)-yl)methyl]-5-(4-{[3-(trifluoromethoxy)benzyl]oxy}benzoyl)cyclopentanecarboxylic acid] | 1100 nM | 250 nM | 450 nM | 910 nM | 3 nM
CCCCCOc1ccc(C(=O)[C@H]2CC[C@@H](Cn3nnc4ccc(C)cc4c3=O)[C@@H]2C(=O)O)cc1 (racemic) [Example 123, (+/−)-(1RS,2SR,5RS)-2-[(6-Methyl-4-oxo-1,2,3-benzotriazin-3(4H)-yl)methyl]-5-[4-(pentyloxy)benzoyl]cyclopentanecarboxylic acid] | 1800 nM | 100 nM | 91 nM | 770 nM | 4.9 nM
O=C(O)[C@@H]1[C@@H](Cn2nnc3ccc(C(F)(F)F)cc3c2=O)CC[C@H]1C(=O)c1ccc(OCC2CCCCC2)cc1 (single isomer, unassigned) [Example 41, (+)-(1RS,2RS,5SR)-2-[4-(Cyclohexylmethoxy)benzoyl]-5-{[4-oxo-6-(trifluoromethyl)-1,2,3-benzotriazin-3(4H)-yl]methyl}cyclopentanecarboxylic acid] | 790 nM | 27 nM | 16 nM | 220 nM | 0.71 nM
O=C(O)[C@@H]1[C@@H](Cn2nnc3ccc(C(F)(F)F)cc3c2=O)CC[C@H]1C(=O)c1ccc(OCCC2CCCCC2)cc1 (single isomer, unassigned) [Example 52, (+)-(1RS,2RS,5SR)-2-[4-(2-Cyclohexylethoxy)benzoyl]-5-{[4-oxo-6-(trifluoromethyl)-1,2,3-benzotriazin-3(4H)-yl]methyl}cyclopentanecarboxylic acid] | 6900 nM | 170 nM | 160 nM | 2800 nM | 10 nM
O=C(O)[C@@H]1[C@@H](Cn2nnc3ccc(C(F)(F)F)cc3c2=O)CC[C@H]1C(=O)c1ccc(SCc2cccc(Cl)c2)cc1 (single isomer, unassigned) [Example 77, (+)-(1RS,2RS,5SR)-2-{4-[(3-Chlorobenzyl)sulphanyl]benzoyl}-5-{[4-oxo-6-(trifluoromethyl)-1,2,3-benzotriazin-3(4H)-yl]methyl}cyclopentanecarboxylic acid] | 1400 nM | 54 nM | 130 nM | 23000 nM | 2 nM

The remaining compounds from weak to strong by IC50 (mouse MMP-3), led by results:

IC50 (mouse MMP-3) | IC50 (mouse MMP-7) | IC50 (mouse MMP-8) | IC50 (mouse MMP-9) | IC50 (mouse MMP-12) | Compound
8000 nM | 69 nM | 300 nM | 1700 nM | 6.5 nM | O=C(O)[C@@H]1[C@@H](Cn2nnc3ccc(C(F)(F)F)cc3c2=O)CC[C@H]1C(=O)c1ccc(OCc2cccc(Cl)c2)cc1 (single isomer, unassigned) [Example 23, (+)-(1RS,2RS,5SR)-2-{4-[(3-Chlorobenzyl)oxy]benzoyl}-5-{[4-oxo-6-(trifluoromethyl)-1,2,3-benzotriazin-3(4H)-yl]methyl}cyclopentanecarboxylic acid]
5900 nM | 120 nM | 410 nM | 2700 nM | 2.3 nM | O=C(O)[C@@H]1[C@@H](Cn2nnc3ccc(C(F)(F)F)cc3c2=O)CC[C@H]1C(=O)c1ccc(SCc2ccccc2)cc1 (single isomer, unassigned) [Example 75, (+)-(1RS,2RS,5SR)-2-[4-(Benzylsulphanyl)benzoyl]-5-{[4-oxo-6-(trifluoromethyl)-1,2,3-benzotriazin-3(4H)-yl]methyl}cyclopentanecarboxylic acid]
1100 nM | 28 nM | 270 nM | 550 nM | 2.3 nM | Cc1ccc2nnn(C[C@@H]3CC[C@H](C(=O)c4ccc(OCc5cccc(Cl)c5)cc4)[C@H]3C(=O)O)c(=O)c2c1 (racemic) [Example 103, (+/−)-(1RS,2RS,5SR)-2-{4-[(3-Chlorobenzyl)oxy]benzoyl}-5-[(6-methyl-4-oxo-1,2,3-benzotriazin-3(4H)-yl)methyl]cyclopentanecarboxylic acid]

— patent US20170022171A1, “2,5-DISUBSTITUTED CYCLOPENTANECARBOXYLIC ACIDS AND THEIR USE” (Bayer Pharma Aktiengesellschaft, priority 2014, published 2017)
